Measurements reported in patent US11779628B2, “Use of cell-permeable peptide inhibitors of the JNK signal transduction pathway for the treatment of various diseases” (Xigen Inflammation Ltd., priority 2014, dated 2023).

Key:
[1] = tested on: gerbil, transient global ischemia; conditions: Carboni et al. 2004; cited from earlier work
[2] = tested on: primary embryonic cultures and differentiated PC12 cells; conditions: after trophic withdrawal; cited from earlier work
[3] = tested on: Sprague-Dawley rats, STZ; assay: Rat model of diabetic nephropathy (STZ, high fat diet); type: in vivo; conditions: XG-102 1, 2, 4 mg/kg iv weekly; Losartan 25 mg/kg po daily; 9 weeks
Source text: Losartan has been used as a positive control. Seventy-four male Sprague-Dawley rats (200-250 g; including 4 spare animals) from Charles River (Margate, Kent) were used. […] The diet has been purchased from Research Diets, New Jersey, USA. […] Animals have been housed in pairs throughout the study. […] During the third week of habituation, a blood sample has been taken from the lateral tail vein in the freely fed state using a hand-held glucose meter (One Touch Ultra 2). Blood sampling began at approximately 09:00. […] About 40 animals have been assigned to Cohort A and the remaining 30 to Cohort B, balanced as far as possible for body weight, plasma glucose and food and water intake. […] For the 7-day period post STZ dose, animals have been weighed daily and food and water intake determined twice weekly. For the remaining study duration, animals have been weighed and water and food intake assessed twice weekly (always on the day of intravenous dosing and typically on water refill day(s)). […] Animals have been weighed prior to dosing (this weight was recorded). Food and water have been recorded on the same days as the intravenous groups (A-E) only. […] Creatinine, glucose, urea, total protein and electrolytes (Na, K, Cl and Ca) have been determined on urine samples using a COBAS […] and associated reagents (n=2 for all urine analyses). […] Food consumed and water drunk has also been calculated. […]

## N#CC(c1ccnc(NCCc2cccnc2)n1)c1nc2ccccc2s1 (stereo not drawn) [AS601245]
[1]
  delayed loss of hippocampal CA1 neurons: provided significant protection against the delayed loss of hippocampal CA1 neurons

## CCSCc1ccc2c(c1)c1c3c(c4c5cc(CSCC)ccc5n5c4c1n2[C@H]1C[C@](O)(C(=O)OC)[C@]5(C)O1)CNC3=O [CEP-1347]
[2]
  neuronal survival: promotes neuronal survival at dosages that inhibit activation of the c-Jun amino-terminal kinases (JNKs)

## CCCCc1nc(Cl)c(CO)n1Cc1ccc(-c2ccccc2-c2nn[nH]n2)cc1 [Losartan]
[3]
  body weight: has been significantly lower
